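Five compound concentrations were applied to cells in 96-well plates for 48 hours; endpoints were derived by simple linear interpolation of the resulting dose-response curve. GI50 = concentration required for 50% inhibition of growth. TGI: total growth inhibition.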
Legend:
Test in all cases: growth of human tumour cells (NCI), 48 h; in the data active means GI50 below about 0.43 µM; inactive means the rest
786-0 renal = test system: 786-0 renal
A498 renal = test system: A498 renal
A549 NSCLC = test system: A549 NSCLC
ACHN renal = test system: ACHN renal
BT-549 breast = test system: BT-549 breast
CAKI-1 renal = test system: CAKI-1 renal
CCRF-CEM leukemia = test system: CCRF-CEM leukemia
COLO 205 colon = test system: COLO 205 colon
DU-145 prostate = test system: DU-145 prostate
EKVX NSCLC = test system: EKVX NSCLC
HCC-2998 colon = test system: HCC-2998 colon
HCT-116 colon = test system: HCT-116 colon
HCT-15 colon = test system: HCT-15 colon
HL-60(TB) leukemia = test system: HL-60(TB) leukemia
HOP-62 NSCLC = test system: HOP-62 NSCLC
HOP-92 NSCLC = test system: HOP-92 NSCLC
HS 578T breast = test system: HS 578T breast
HT29 colon = test system: HT29 colon
IGROV1 ovarian = test system: IGROV1 ovarian
K-562 leukemia = test system: K-562 leukemia
KM12 colon = test system: KM12 colon
LOX IMVI melanoma = test system: LOX IMVI melanoma
M14 melanoma = test system: M14 melanoma
MALME-3M melanoma = test system: MALME-3M melanoma
MCF7 breast = test system: MCF7 breast
MDA-MB-231 breast = test system: MDA-MB-231 breast
MDA-MB-435 = test system: MDA-MB-435
MOLT-4 leukemia = test system: MOLT-4 leukemia
NCI-H226 lung = test system: NCI-H226 lung
NCI-H23 lung = test system: NCI-H23 lung
NCI-H460 lung = test system: NCI-H460 lung
NCI-H522 lung = test system: NCI-H522 lung
NCI/ADR-RES ovarian = test system: NCI/ADR-RES ovarian
OVCAR-3 ovarian = test system: OVCAR-3 ovarian
OVCAR-4 ovarian = test system: OVCAR-4 ovarian
OVCAR-5 ovarian = test system: OVCAR-5 ovarian
OVCAR-8 ovarian = test system: OVCAR-8 ovarian
PC-3 prostate = test system: PC-3 prostate
RPMI-8226 leukemia = test system: RPMI-8226 leukemia
SF-268 CNS = test system: SF-268 CNS
SF-295 CNS = test system: SF-295 CNS
SF-539 CNS = test system: SF-539 CNS
SK-MEL-2 melanoma = test system: SK-MEL-2 melanoma
SK-MEL-28 melanoma = test system: SK-MEL-28 melanoma
SK-MEL-5 melanoma = test system: SK-MEL-5 melanoma
SK-OV-3 ovarian = test system: SK-OV-3 ovarian
SN12C renal = test system: SN12C renal
SNB-19 CNS = test system: SNB-19 CNS
SNB-75 CNS = test system: SNB-75 CNS
SR leukemia = test system: SR leukemia
SW-620 colon = test system: SW-620 colon
T-47D breast = test system: T-47D breast
TK-10 renal = test system: TK-10 renal
U251 CNS = test system: U251 CNS
UACC-257 melanoma = test system: UACC-257 melanoma
UACC-62 melanoma = test system: UACC-62 melanoma
UO-31 renal = test system: UO-31 renal

Cn1ncc2ncc(-c3ccc4ncc(C#N)c(N5CCc6cc(F)c(Cl)cc65)c4c3)cc21
14.6 µM: TGI (EKVX NSCLC)
85.6 µM: TGI (BT-549 breast)
10.5 µM: TGI (UO-31 renal)
20.9 µM: TGI (NCI-H226 lung)
8.75 µM: TGI (HOP-92 NSCLC)
21.9 µM: TGI (SK-MEL-5 melanoma)
38.4 µM: TGI (LOX IMVI melanoma)
61.7 µM: TGI (SF-539 CNS)
7.7 µM: TGI (A498 renal)
11.7 µM: TGI (UACC-62 melanoma)
31.5 µM: TGI (OVCAR-4 ovarian)
28.1 µM: TGI (MDA-MB-231 breast)
5.41 µM: TGI (HS 578T breast)
79 µM: TGI (CAKI-1 renal)
active: GI50 (UO-31 renal) 0.251 µM
4.61 µM: TGI (IGROV1 ovarian)
inactive: GI50 (786-0 renal) 4.13 µM | GI50 (A498 renal) 2.61 µM | GI50 (A549 NSCLC) 4.05 µM | GI50 (ACHN renal) 2.49 µM | GI50 (BT-549 breast) 3.75 µM | GI50 (CAKI-1 renal) 2.31 µM | GI50 (CCRF-CEM leukemia) 4.62 µM | GI50 (COLO 205 colon) 5.8 µM | GI50 (DU-145 prostate) 4.05 µM | GI50 (EKVX NSCLC) 2.35 µM | GI50 (HCC-2998 colon) 3.26 µM | GI50 (HCT-116 colon) 9.79 µM | GI50 (HCT-15 colon) 3.49 µM | GI50 (HL-60(TB) leukemia) 7.84 µM | GI50 (HOP-62 NSCLC) 2.74 µM | GI50 (HOP-92 NSCLC) 2.27 µM | GI50 (HS 578T breast) 1.44 µM | GI50 (HT29 colon) 3.82 µM | GI50 (IGROV1 ovarian) 1.22 µM | GI50 (K-562 leukemia) 4.73 µM | GI50 (KM12 colon) 5.35 µM | GI50 (LOX IMVI melanoma) 2.26 µM | GI50 (M14 melanoma) 6.02 µM | GI50 (MALME-3M melanoma) 2.14 µM | GI50 (MCF7 breast) 2.44 µM | GI50 (MDA-MB-231 breast) 2.6 µM | GI50 (MDA-MB-435) 3.13 µM | GI50 (MOLT-4 leukemia) 3.01 µM | GI50 (NCI-H226 lung) 1.86 µM | GI50 (NCI-H23 lung) 4.8 µM | GI50 (NCI-H460 lung) 4.93 µM | GI50 (NCI-H522 lung) 3.28 µM | GI50 (NCI/ADR-RES ovarian) 3.27 µM | GI50 (OVCAR-3 ovarian) 2.66 µM | GI50 (OVCAR-4 ovarian) 2.64 µM | GI50 (OVCAR-5 ovarian) 3.71 µM | GI50 (OVCAR-8 ovarian) 4.47 µM | GI50 (PC-3 prostate) 2.27 µM | GI50 (RPMI-8226 leukemia) 3.28 µM | GI50 (SF-268 CNS) 4.11 µM | GI50 (SF-295 CNS) 2.57 µM | GI50 (SF-539 CNS) 3.78 µM | GI50 (SK-MEL-2 melanoma) 5.65 µM | GI50 (SK-MEL-28 melanoma) 4.92 µM | GI50 (SK-MEL-5 melanoma) 6.97 µM | GI50 (SK-OV-3 ovarian) 2.71 µM | GI50 (SN12C renal) 1.93 µM | GI50 (SNB-19 CNS) 6.72 µM | GI50 (SNB-75 CNS) 0.769 µM | GI50 (SR leukemia) 3.67 µM | GI50 (SW-620 colon) 7.04 µM | GI50 (T-47D breast) 2.03 µM | GI50 (TK-10 renal) 9.02 µM | GI50 (U251 CNS) 5.46 µM | GI50 (UACC-257 melanoma) 9.46 µM | GI50 (UACC-62 melanoma) 1.65 µM
31.1 µM: TGI (T-47D breast)
> 100 µM: TGI (786-0 renal) | TGI (A549 NSCLC) | TGI (ACHN renal) | TGI (CCRF-CEM leukemia) | TGI (COLO 205 colon) | TGI (DU-145 prostate) | TGI (HCC-2998 colon) | TGI (HCT-116 colon) | TGI (HCT-15 colon) | TGI (HL-60(TB) leukemia) | TGI (HOP-62 NSCLC) | TGI (HT29 colon) | TGI (K-562 leukemia) | TGI (KM12 colon) | TGI (M14 melanoma) | TGI (MCF7 breast) | TGI (MOLT-4 leukemia) | TGI (NCI-H23 lung) | TGI (NCI-H460 lung) | TGI (NCI-H522 lung) | TGI (NCI/ADR-RES ovarian) | TGI (OVCAR-5 ovarian) | TGI (OVCAR-8 ovarian) | TGI (PC-3 prostate) | TGI (RPMI-8226 leukemia) | TGI (SF-268 CNS) | TGI (SF-295 CNS) | TGI (SK-MEL-28 melanoma) | TGI (SK-OV-3 ovarian) | TGI (SN12C renal) | TGI (SNB-19 CNS) | TGI (SR leukemia) | TGI (SW-620 colon) | TGI (TK-10 renal) | TGI (U251 CNS) | TGI (UACC-257 melanoma)
83.6 µM: TGI (OVCAR-3 ovarian)
14.9 µM: TGI (MALME-3M melanoma)
37.7 µM: TGI (SK-MEL-2 melanoma)
11.8 µM: TGI (MDA-MB-435)
5.47 µM: TGI (SNB-75 CNS)

— PubChem BioAssay (NCI)
